# Source: patent US12240844B2 (Voronoi, Inc., priority 2019, dated 2025)
# Experiments:
# Assay in all cases: scanMAX Kinase panel (DiscoverX), % control
# Format in all cases: binding
# Conditions in all cases: <35% = active
# ALK (C1156Y) = target: T1, ALK (C1156Y) (Homo sapiens, UniProt Q9UM73, C1156Y)
# T1 construct: purchased DiscoverX
# Procedure: (§1) Specifically, for Examples 162, 160, 105, 217, 205, 96, 207, 184, 206, 221, 238, and 237 selected among the example compounds of the present invention, it was decided to measure enzyme (kinase) selectivity by DiscoverX, and the experiment was conducted using a panel for scanMAX™ Kinase analysis. At this time, the concentration of the drug treated with the enzyme was 1 uM in DMSO, the control percentage (% control) was determined in the same way as in Equation 1 below, and the results were shown in Table 6 below. [formula] Here, the positive control refers to a compound showing a control percentage of 0%, and the negative control is DMSO, indicating a control percentage of 100%. Also, in the enzyme selectivity of the present invention, if the control percentage for each enzyme was <35% (i.e., less than 35%), it was determined to have activity against the relevant enzyme.
# ALK (L1196M) = target: T2, ALK (L1196M) (Homo sapiens, UniProt Q9UM73, L1196M)
# T2 construct: purchased DiscoverX
# Procedure: as §1
# CLK1 = target: T3, CLK1 (Homo sapiens, UniProt P49759)
# T3 construct: purchased DiscoverX
# Procedure: as §1
# CLK2 = target: T4, CLK2 (Homo sapiens, UniProt P49760)
# T4 construct: purchased DiscoverX
# Procedure: as §1
# CLK3 = target: T5, CLK3 (Homo sapiens, UniProt P49761)
# T5 construct: purchased DiscoverX
# Procedure: as §1
# CLK4 = target: T6, CLK4 (Homo sapiens, UniProt Q9HAZ1)
# T6 construct: purchased DiscoverX
# Procedure: as §1
# DYRK1A = target: T7, DYRK1A (Homo sapiens, UniProt Q13627)
# T7 construct: purchased DiscoverX
# Procedure: as §1
# DYRK1B = target: T8, DYRK1B (Homo sapiens, UniProt Q9Y463)
# T8 construct: purchased DiscoverX
# Procedure: as §1
# DYRK2 = target: T9, DYRK2 (Homo sapiens, UniProt Q92630)
# T9 construct: purchased DiscoverX
# T9 sequence (Q92630 1-601): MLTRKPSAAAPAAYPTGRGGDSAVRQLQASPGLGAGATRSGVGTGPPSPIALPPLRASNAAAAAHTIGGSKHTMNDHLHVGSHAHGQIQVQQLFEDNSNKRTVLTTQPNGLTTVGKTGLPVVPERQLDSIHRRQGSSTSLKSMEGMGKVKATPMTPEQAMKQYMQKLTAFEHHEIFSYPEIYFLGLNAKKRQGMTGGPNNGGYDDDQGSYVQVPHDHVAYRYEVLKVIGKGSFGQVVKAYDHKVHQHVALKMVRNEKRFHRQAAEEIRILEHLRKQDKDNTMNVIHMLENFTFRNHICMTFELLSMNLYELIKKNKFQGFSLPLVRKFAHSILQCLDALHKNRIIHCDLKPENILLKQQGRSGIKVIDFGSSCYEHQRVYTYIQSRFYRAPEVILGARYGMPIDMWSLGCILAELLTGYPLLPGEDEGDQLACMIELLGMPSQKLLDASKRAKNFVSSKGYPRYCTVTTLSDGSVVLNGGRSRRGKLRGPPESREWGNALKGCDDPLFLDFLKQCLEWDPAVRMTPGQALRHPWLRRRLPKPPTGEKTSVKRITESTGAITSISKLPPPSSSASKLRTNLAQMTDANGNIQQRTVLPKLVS
# Procedure: as §1
# MYLK = target: T10, MYLK (Homo sapiens, UniProt Q15746)
# T10 construct: purchased DiscoverX
# Procedure: as §1
# T10 sequence (Q15746 whole entry): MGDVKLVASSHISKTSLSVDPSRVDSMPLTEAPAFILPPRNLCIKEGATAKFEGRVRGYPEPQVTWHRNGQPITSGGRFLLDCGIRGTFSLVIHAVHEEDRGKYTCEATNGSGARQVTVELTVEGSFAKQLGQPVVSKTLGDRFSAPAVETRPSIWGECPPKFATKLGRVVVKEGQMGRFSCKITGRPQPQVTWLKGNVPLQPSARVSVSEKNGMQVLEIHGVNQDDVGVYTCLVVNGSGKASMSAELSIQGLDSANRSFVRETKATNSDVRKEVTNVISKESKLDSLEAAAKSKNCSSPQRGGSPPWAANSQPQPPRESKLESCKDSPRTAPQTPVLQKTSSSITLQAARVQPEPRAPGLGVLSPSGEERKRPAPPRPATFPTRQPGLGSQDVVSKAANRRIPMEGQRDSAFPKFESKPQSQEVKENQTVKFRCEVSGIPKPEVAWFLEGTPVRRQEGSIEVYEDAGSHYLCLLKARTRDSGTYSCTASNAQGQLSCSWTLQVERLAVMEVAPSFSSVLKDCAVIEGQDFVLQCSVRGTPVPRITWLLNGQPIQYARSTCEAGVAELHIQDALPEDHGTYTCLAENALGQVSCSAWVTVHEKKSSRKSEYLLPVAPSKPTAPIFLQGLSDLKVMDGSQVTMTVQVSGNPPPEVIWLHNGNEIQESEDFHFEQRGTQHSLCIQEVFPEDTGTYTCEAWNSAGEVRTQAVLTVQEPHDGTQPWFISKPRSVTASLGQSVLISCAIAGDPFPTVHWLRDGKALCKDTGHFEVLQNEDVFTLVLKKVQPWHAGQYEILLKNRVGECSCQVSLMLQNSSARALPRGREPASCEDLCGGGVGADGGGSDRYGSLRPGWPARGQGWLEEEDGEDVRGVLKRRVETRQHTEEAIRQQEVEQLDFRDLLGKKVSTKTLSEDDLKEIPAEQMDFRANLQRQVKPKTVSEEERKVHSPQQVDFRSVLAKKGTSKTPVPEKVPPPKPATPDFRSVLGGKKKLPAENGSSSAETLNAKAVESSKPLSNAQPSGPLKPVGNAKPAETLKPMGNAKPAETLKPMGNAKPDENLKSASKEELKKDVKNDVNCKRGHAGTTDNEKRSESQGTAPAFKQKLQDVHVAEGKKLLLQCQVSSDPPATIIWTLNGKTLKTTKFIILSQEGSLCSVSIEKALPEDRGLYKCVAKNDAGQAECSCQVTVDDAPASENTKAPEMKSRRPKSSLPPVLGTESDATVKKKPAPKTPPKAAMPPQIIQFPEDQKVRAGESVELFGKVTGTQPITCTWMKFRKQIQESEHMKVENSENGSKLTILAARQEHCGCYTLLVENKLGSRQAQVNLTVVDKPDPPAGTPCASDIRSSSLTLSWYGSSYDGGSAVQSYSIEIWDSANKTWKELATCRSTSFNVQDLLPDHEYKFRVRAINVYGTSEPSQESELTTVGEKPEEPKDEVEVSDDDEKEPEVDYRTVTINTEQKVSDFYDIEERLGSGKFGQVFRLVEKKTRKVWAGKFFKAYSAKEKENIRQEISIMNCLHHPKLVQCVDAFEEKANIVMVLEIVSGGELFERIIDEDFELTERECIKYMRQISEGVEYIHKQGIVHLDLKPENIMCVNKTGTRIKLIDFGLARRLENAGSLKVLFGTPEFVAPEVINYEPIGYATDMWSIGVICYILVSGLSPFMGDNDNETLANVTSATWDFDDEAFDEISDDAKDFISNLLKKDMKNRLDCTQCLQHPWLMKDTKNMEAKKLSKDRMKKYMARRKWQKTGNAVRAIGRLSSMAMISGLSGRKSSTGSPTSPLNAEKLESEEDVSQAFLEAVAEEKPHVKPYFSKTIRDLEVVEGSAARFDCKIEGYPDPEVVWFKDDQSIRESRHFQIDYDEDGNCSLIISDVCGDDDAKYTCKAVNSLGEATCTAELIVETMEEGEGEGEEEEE
# T4 sequence (P49760 whole entry): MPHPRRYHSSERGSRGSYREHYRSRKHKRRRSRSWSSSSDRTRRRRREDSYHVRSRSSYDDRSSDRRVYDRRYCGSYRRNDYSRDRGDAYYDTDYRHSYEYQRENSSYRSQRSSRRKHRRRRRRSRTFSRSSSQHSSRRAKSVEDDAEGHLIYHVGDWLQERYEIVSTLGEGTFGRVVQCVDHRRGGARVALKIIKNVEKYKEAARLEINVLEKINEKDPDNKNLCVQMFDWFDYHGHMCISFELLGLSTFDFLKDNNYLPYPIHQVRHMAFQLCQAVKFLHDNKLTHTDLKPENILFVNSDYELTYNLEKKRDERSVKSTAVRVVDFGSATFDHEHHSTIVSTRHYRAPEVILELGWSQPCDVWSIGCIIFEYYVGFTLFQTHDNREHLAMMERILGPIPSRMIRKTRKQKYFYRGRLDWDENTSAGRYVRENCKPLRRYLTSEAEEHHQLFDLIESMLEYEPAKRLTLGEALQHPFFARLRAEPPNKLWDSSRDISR
# T1 sequence (Q9UM73 19-1620 C1156Y): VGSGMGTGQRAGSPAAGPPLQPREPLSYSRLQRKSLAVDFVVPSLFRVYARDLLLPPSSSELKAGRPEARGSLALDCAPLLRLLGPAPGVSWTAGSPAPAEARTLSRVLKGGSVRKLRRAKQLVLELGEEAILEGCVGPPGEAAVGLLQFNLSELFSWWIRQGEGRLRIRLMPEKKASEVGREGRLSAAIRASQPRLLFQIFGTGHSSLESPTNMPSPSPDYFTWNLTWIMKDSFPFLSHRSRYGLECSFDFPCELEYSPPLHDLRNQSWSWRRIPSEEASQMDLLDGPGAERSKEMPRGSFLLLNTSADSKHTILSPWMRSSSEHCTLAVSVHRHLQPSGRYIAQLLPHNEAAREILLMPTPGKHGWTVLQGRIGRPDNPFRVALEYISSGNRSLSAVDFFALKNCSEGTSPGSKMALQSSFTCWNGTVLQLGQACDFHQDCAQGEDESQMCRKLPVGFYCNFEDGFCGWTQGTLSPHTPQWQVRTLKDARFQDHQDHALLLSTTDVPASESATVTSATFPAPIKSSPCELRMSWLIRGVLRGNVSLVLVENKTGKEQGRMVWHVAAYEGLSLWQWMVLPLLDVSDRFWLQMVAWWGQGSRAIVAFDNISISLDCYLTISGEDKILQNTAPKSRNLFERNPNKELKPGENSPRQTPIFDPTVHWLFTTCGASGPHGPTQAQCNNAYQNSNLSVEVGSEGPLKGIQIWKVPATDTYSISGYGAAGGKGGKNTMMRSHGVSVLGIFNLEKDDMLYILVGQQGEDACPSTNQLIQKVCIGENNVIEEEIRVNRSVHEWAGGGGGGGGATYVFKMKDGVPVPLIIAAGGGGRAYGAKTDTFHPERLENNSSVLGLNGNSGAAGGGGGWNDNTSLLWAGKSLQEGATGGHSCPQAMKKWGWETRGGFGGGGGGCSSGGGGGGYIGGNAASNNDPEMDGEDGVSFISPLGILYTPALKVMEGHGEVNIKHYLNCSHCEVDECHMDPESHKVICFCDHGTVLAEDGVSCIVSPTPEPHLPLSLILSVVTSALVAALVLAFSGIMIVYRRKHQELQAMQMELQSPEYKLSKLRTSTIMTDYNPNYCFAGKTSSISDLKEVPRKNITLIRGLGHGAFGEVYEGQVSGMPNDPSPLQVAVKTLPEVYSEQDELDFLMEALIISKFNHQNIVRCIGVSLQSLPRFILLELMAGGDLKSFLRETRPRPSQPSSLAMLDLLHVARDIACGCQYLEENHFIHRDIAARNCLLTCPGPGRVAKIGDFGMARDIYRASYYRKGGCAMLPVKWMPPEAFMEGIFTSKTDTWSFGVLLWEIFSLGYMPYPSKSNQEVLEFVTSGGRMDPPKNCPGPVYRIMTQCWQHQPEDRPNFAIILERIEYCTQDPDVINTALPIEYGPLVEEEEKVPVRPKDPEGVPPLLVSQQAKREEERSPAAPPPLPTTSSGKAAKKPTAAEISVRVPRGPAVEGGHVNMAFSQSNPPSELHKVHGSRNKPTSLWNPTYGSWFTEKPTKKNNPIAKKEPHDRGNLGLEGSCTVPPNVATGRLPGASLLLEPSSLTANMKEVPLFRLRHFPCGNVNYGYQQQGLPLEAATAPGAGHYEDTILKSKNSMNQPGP
# T2 sequence (Q9UM73 19-1620 L1196M): as the sequence (Q9UM73 19-1620 C1156Y) above, with Y1138C, L1178M counted along it
# T3 sequence (P49759 whole entry): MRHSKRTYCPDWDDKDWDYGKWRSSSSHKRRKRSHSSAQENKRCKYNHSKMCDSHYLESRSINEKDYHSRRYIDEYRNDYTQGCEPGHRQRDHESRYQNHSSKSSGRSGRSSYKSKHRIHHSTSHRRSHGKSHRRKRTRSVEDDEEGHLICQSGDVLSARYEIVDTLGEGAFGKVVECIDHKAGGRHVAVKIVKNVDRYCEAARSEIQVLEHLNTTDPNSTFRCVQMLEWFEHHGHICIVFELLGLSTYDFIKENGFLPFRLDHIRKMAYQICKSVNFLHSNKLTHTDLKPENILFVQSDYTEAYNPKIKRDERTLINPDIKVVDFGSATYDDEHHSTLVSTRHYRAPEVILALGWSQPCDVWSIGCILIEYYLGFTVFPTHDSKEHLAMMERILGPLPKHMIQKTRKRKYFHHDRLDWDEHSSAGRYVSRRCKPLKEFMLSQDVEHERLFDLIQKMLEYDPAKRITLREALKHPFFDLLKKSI
# T5 sequence (P49761 whole entry): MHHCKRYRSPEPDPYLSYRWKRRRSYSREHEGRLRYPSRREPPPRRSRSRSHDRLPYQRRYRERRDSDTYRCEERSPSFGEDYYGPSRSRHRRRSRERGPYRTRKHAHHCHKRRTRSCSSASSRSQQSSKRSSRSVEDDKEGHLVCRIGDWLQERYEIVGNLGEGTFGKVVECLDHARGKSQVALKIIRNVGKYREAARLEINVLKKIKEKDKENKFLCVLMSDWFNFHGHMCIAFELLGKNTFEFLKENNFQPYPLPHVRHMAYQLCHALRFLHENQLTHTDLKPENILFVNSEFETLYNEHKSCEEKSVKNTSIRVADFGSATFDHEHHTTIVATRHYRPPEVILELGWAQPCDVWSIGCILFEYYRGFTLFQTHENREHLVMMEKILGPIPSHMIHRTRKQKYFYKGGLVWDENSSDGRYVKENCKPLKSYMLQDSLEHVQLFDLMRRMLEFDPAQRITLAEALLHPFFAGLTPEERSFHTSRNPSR
Structure (SMILES),remaining binding at 1 µM (ALK (C1156Y)) [%],remaining binding at 1 µM (ALK (L1196M)) [%],remaining binding at 1 µM (CLK1) [%],remaining binding at 1 µM (CLK2) [%],remaining binding at 1 µM (CLK3) [%],remaining binding at 1 µM (CLK4) [%],remaining binding at 1 µM (DYRK1A) [%],remaining binding at 1 µM (DYRK1B) [%],remaining binding at 1 µM (DYRK2) [%],remaining binding at 1 µM (MYLK) [%]
"CCNc1cc(Nc2ccc(P3(=O)CCN(C4CC4)CC3)cc2OC)nc2[nH]cc(C(F)(F)F)c12 [Example 206, 1-cyclopropyl-4-(4-((4-(ethylamino)-3-(trifluoromethyl)-1H-pyrrolo[2,3-b]pyridin-6-yl)amino)-3-methoxyphenyl)-1,4-azaphosphinane 4-oxide]",5.3,23,8.5,3.1,91,1.2,2,0,45,3
"O=C(c1ccc(Nc2cc(C3CC3)c3c(C(F)(F)F)c[nH]c3n2)c2c1CCO2)N1CC[C@@H](N2CCOCC2)C1 [Example 238, (R)-(7-((4-cyclopropyl-3-(trifluoromethyl)-1H-pyrrolo[2,3-b]pyridin-6-yl)amino)-2,3-dihydrobenzofuran-4-yl)(3-morpholinopyrrolidin-1-yl)methanone]",42,58,2.4,0.25,56,0.35,1.9,0.7,89,33
"CCNc1cc(Nc2ccc(S(=O)(=O)N3CCC(N4CCOCC4)CC3)c3c2OCCO3)nc2[nH]cc(C(F)(F)F)c12 [Example 96, N^4-ethyl-N^6-(8-((4-morpholonopiperidin-1-yl)sulfonyl)-2,3-dihydrobenzo [b] [1,4]dioxin-5-yl)-3-(trifluoromethyl)-1H-pyrrolo[2,3-b]pyridine-4,6-diamine]",10,28,9.7,1.2,27,0.3,1.3,3,21,37
"CNc1cc(Nc2ccc(C(=O)N3CCC(N4CCOCC4)CC3)c3c2OCCO3)nc2[nH]cc(C(F)(F)F)c12 [Example 160, (8-((4-(methylamino)-3-(trifluoromethyl)-1H-pyrrolo[2,3-b]pyridin-6-yl)amino)-2,3-dihydrobenzo [b] [1,4]dioxin-5-yl)(4-morpholinopiperidin-1-yl)methanone]",0.9,1.3,13,0.65,13,0.55,0.35,0,20,0
"CNc1cc(Nc2ccc(P3(=O)CCN(C4CC4)CC3)cc2OC)nc2[nH]cc(C(F)(F)F)c12 [Example 205, 1-cyclopropyl-4-(3-methoxy-4-((4-(methylamino)-3-(trifluoromethyl)-1H-pyrrolo[2,3-b]pyridin-6-yl)amino)phenyl)-1,4-azaphosphinane 4-oxide]",1.3,1.6,18,0.15,37,0.25,0.25,2.5,28,0
"CCCNc1cc(Nc2ccc(C(=O)N3CCC(N4CCOCC4)CC3)c3c2OCCO3)nc2[nH]cc(C(F)(F)F)c12 [Example 162, (4-morpholinopiperidin-1-yl)(8-((4-(propylamino)-3-(trifluoromethyl)-1H-pyrrolo[2,3-b]pyridin-6-yl)amino)-2,3-dihydrobenzo[b] [1,4]dioxin-5-yl)methanone]",0.9,1.3,13,0.65,13,0.55,0.35,0,20,0
"O=C(c1ccc(Nc2cc(C3CC3)c3c(C(F)(F)F)c[nH]c3n2)c2c1CCO2)N1CC[C@H](N2CCOCC2)C1 [Example 237, (S)-(7-((4-cyclopropyl-3-(trifluoromethyl)-1H-pyrrolo[2,3-b]pyridin-6-yl)amino)-2,3-dihydrobenzofuran-4-yl)(3-morpholinopyrrolidin-1-yl)methanone]",9.7,15,3.6,0,58,0.55,2.2,1.4,62,15
"CNc1cc(Nc2ccc(C(=O)N3CC[C@H](N4CCOCC4)C3)c3c2OCC3)nc2[nH]cc(C(F)(F)F)c12 [Example 217, (S)-(7-((4-(methylamino)-3-(trifluoromethyl)-1H-pyrrolo[2,3-b]pyridin-6-yl)amino)-2,3-dihydrobenzofuran-4-yl)(3-morpholinopyrrolidin-1-yl)methanone]",3.9,18,2.4,0.55,19,8.2,0,1.4,9.7,1.8
"CNc1cc(Nc2ccc(S(=O)(=O)N3CCC(N4CCOCC4)CC3)cc2OC)nc2[nH]cc(C(F)(F)F)c12 [Example 184, N^6-(2-methoxy-4-((4-morpholinopiperidin-1-yl)sulfonyl)phenyl)-N^4-methyl-3-(trifluoromethyl)-1H-pyrrolo[2,3-b]pyridine-4,6-diamine]",7,23,3.4,0.3,7.8,0.45,0.1,13,14,8
"O=C(c1ccc(Nc2cc(C3CC3)c3c(C(F)(F)F)c[nH]c3n2)c2c1OCCO2)N1CCC(N2CCOCC2)CC1 [Example 221, (8-((4-cyclopropyl-3-(trifluoromethyl)-1H-pyrrolo[2,3-b]pyridin-6-yl)amino)-2,3-dihydrobenzo [b] [1,4]dioxin-5-yl)(4-morpholinopiperidin-1-yl)methanone]",12,28,7.5,8.2,60,0.25,5.1,0.45,18,30
